We go through four compounds from patent US6090825A, “Oxazole derivatives as antagonists of alpha 1C andrenergic receptors” (Glaxo Wellcome Inc., priority 1994, dated 2000).

Where a name gives a salt, the structure may show the parent alone.

Series [1] can be described thus: Crystal form stability and hygroscopicity. The class given is physicochemical. The method, then:
Compounds of the present invention can exist in more than one crystalline form. For example, crystalline forms may vary from solvate to solvate. Compounds of the present invention encompass all possible crystalline forms. In particular, for example, 5-(2-{4-[5-(4-fluorophenyl)-4-(2,2,2-trifluoroethoxymethyl)-oxazol-2-yl}-ethyl)-2-methoxybenzenesulfonamide hydrochloride exists in four known crystal forms. Form I melts around 145° C. and converts to Form III which has a melting point around 200° C.

The next series has as its system male Wistar rats. Kind of series: Behavioural and autonomic observation after oral dosing in rats. The class given is in vivo. To be noted: 10 mg/kg po. Here is the method:
The compound of Example 13 was administered at 10 mg/kg (po) to male Wistar rats.

The next series concerns diastolic blood pressure. Kind of series: Canine model: inhibition of phenylephrine response on diastolic blood pressure in anesthetized dog. The class given is in vivo, male mongrel dogs. To be noted: Canis lupus familiaris, iv, dose (salt) producing 50% inhibition of agonist (phenylephrine) response on diastolic blood pressure, cumulative i.v. infusion, read-out: BP ED50. The method, then:
(§1) A. CANINE URETHRAL-PROSTATE PRESSURE
(§2) To evaluate the ability of compounds to affect urethral-prostate pressure (contractility) while assessing their cardiovascular effects simultaneously.
Using hypogastric nerve stimulation (NS) and the .varies.-1 agonist phenylephrine (or other receptor agonists, as appropriate) the responses of urethral pressures and systemic blood pressure are recorded. The tests compounds are then given in a log dose infusion. The inhibition of the NS response within the prostate as well as the systemic phenylephrine response on blood pressure is measured to assess the uro-selectivity of the compound in the anesthetized dog.
Interesting compounds are those that express uro-selectivity with a ratio of >100 for the urethral pressure vs diastolic blood pressure comparisons (BP.US). […]
(§3) 4. Rectal temperature is monitored and maintained at 37-39° C. with a heating pad. […]
(§4) 1. After a control period of at least 30 minutes and establishment of stable baselines of urethral and blood pressure are observed, the control responses to NS or phenylephrine bolus are recorded.
3. At a time point 5 minutes post NS a phenylephrine bolus (10 μg/kg) is given into the cephalic vein and changes in blood pressure are recorded. At least two NS and phenylephrine injections are performed and evaluated for their consistency, the second consistent stimulation is picked for the baseline value response. […]

For a further series, the system named is urethral pressure. Put plainly: Canine urethral-prostate pressure: inhibition of hypogastric nerve stimulation response in anesthetized dog. The class given is in vivo, male mongrel dogs. The method, then: as §1, §2
Using hypogastric nerve stimulation (NS) and the .varies.-1 agonist phenylephrine (or other receptor agonists, as appropriate) the responses of urethral pressures and systemic blood pressure are recorded. The tests compounds are then given in a log dose infusion. The inhibition of the NS response within the prostate as well as the systemic phenylephrine response on blood pressure is measured to assess the uro-selectivity of the compound in the anesthetized dog. […]
as §3
3. […] The effects of either nerve stimulation (NS) or IV phenylephrine can be evaluated.
as §4
2. A hypogastric nerve stimulation of 16 Hertz, 10 Volts, 10 msec pulse width and 10 sec train duration are given and changes in urethral pressures are recorded.
3. At a time point 5 minutes post NS a phenylephrine bolus (10 μg/kg) is given into the cephalic vein and changes in blood pressure are recorded. […]

For the compound `COc1ccc(CCN2CCC(c3nc(COCC(F)(F)F)c(-c4ccc(F)cc4)o3)CC2)cc1S(N)(=O)=O` [Example 13, 5-(2-{4-[5-(4-fluorophenyl)-4-(2,2,2-trifluoroethoxymethyl)-oxazol-2-yl}-ethyl)-2-methoxybenzenesulfonamide hydrochloride], in series [1] (below 70% relative humidity), the hygroscopicity result is listed as “non-hydgroscopic”; the “solid state and chemical stability” value is “good solid state and chemical stability”. Moreover, the “conversion of crystal form” value in series [1] (greater than 70% relative humidity) was “converts to form IV”. Also, the “animals' appearance by 24 hours after dosing” value in the series on male Wistar rats (24 hours) is on record as “all animals appeared normal by 24 hours after dosing”. The ptosis entry in the series with male Wistar rats (between 1 and 4 hours after dosing) was “Slight to moderate ptosis was observed”.

As to `COc1ccc(CCN2CCC(c3nc(COCC(F)(F)F)c(-c4ccc(F)cc4)o3)CC2)cc1S(N)(=O)=O` [Form I, 5-(2-{4-[5-(4-fluorophenyl)-4-(2,2,2-trifluoroethoxymethyl)-oxazol-2-yl}-ethyl)-2-methoxybenzenesulfonamide hydrochloride], in series [1] (room temperature, aqueous media), the “conversion of crystal form” value is reported as “convert to a hydrated form (Form IV)”.

Turning to `COc1ccc(CCN2CCC(c3nc(COCC(F)(F)F)c(-c4ccc(F)cc4)o3)CC2)cc1S(N)(=O)=O` [Example 12, 2-Methoxy-5-(2-{4-[5-(4-fluoro-phenyl)-4-(2,2,2-trifluoro-ethoxymethyl)-oxazol-2-yl]-piperidin-1-yl}-ethyl)-benzenesulfonamide], the ED50 – broadly, the dose at which the effect has come halfway, by size or by number of responders – is 7.15 mg/kg in the series with diastolic blood pressure and 0.013 mg/kg in the series on urethral pressure (Canis lupus familiaris, iv, dose (salt) producing 50% inhibition of nerve stimulation response on urethral pressure, cumulative i.v. infusion, anesthetized dog, read-out: UP ED50). For the same compound, the BP/UP in the series with urethral pressure (ratio of the BP ED50 to the UP ED50, uro-selectivity) is reported as 550.

Regarding `COc1ccc(CCN2CCC(c3nc(COCC(F)(F)F)c(-c4ccc(F)cc4)o3)CC2)cc1S(N)(=O)=O` [Form IV, 5-(2-{4-[5-(4-fluorophenyl)-4-(2,2,2-trifluoroethoxymethyl)-oxazol-2-yl}-ethyl)-2-methoxybenzenesulfonamide hydrochloride], in series [1] (upon separation from the aqueous media), the “conversion of crystal form” value was “readily converts to an anhydrous form (Form II)”.
